According to ChEMBL document CHEMBL3588856, “Structure-Based Development of a Protein-Protein Interaction Inhibitor Targeting Tumor Necrosis Factor Receptor-Associated Factor 6” (J Med Chem, 2015):
Calls of active or inactive are those of the source. The rule behind the calls is not given here.

Legend:
[1] = biological target: T1, TNF receptor-associated factor 6 (Homo sapiens, UniProt Q9Y4K3); experiment: Inhibition of human TRAF6 interaction with biotinylated RANK peptide by NMR interaction analysis
T1 sequence (Q9Y4K3 whole entry): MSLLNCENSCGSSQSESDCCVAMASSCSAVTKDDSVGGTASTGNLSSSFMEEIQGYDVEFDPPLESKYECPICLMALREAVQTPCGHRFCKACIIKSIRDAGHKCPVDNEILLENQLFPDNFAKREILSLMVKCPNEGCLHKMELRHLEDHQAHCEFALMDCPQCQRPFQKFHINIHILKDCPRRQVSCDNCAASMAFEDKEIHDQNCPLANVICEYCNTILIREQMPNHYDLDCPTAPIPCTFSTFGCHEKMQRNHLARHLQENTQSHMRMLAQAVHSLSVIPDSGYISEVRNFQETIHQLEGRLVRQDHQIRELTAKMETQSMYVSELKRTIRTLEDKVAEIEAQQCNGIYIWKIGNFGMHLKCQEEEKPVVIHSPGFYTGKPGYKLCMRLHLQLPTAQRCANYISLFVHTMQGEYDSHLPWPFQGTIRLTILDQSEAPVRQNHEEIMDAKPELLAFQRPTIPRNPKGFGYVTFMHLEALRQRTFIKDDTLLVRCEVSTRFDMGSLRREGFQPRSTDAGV

[2] = test system: Monocyte; experiment: Inhibition of BALB/c mouse primary bone marrow derived monocytes differentiation after 7 days at 150 uM by osteoclast differentiation assay; format: functional; details: 168 h
[3] = biological target: T2, TNF receptor-associated factor 6 (Homo sapiens) (UniProt Q9Y4K3); experiment: Induction of human TRAF6 aggregation by NMR titration
T2 sequence (whole entry): T1 sequence (Q9Y4K3 whole entry)

[4] = biological target: T2, TNF receptor-associated factor 6 (Homo sapiens); details: 200 uM
Description: Competitive inhibition of human TRAF6 interaction with biotinylated RANK peptide at 200 uM by NMR interaction analysis

[5] = biological target: T2, TNF receptor-associated factor 6 (Homo sapiens); experiment: Binding affinity to human TRAF6 using immobilized biotinylated RANK peptide from by SPR analysis
[6] = test system: Monocyte; experiment: Inhibition of BALB/c mouse primary bone marrow derived monocytes differentiation after 7 days by osteoclast differentiation assay; format: functional, cell-based
[7] = Cytotoxicity against BALB/c mouse primary bone marrow derived monocytes after 7 days by osteoclast differentiation/AlamarBlue assay; format: cell-based; details: monocyte, 168 h

Kd [1] [µM] | Activity [3] | inhibition [4] | inhibition [5] | SMILES | inhibition at 150 µM [2] [%] | inhibition [6] | Activity [7]
35 | inactive | Active |  | COc1ccc(S(=O)(=O)NC(=O)c2ccc(NC(=O)Cn3c(=O)sc4ccc(Cl)cc43)cc2)cc1Cl | 40 |  | 
1900 | inactive |  | Active | O=C(Cn1c(=O)sc2ccccc21)Nc1ccc(C(=O)O)cc1 |  | Active | Non-toxic
1700 |  |  |  | O=C(Cn1c(=O)sc2ccc(Cl)cc21)Nc1ccc(C(=O)O)cc1 |  |  | 
990 |  |  |  | CS(=O)(=O)NC(=O)c1ccc(NC(=O)Cn2c(=O)sc3ccc(Cl)cc32)cc1 |  |  | 
